This assay has as its target truncated recombinant AtGABA-T (no-target GABA-T) (Arabidopsis thaliana, UniProt Q94CE5). The experiment in a line: coupled SSADH assay, NADH at […] nm. Type of assay: biochemical.

Sequence of truncated recombinant AtGABA-T (no-target GABA-T) (Q94CE5 37-504): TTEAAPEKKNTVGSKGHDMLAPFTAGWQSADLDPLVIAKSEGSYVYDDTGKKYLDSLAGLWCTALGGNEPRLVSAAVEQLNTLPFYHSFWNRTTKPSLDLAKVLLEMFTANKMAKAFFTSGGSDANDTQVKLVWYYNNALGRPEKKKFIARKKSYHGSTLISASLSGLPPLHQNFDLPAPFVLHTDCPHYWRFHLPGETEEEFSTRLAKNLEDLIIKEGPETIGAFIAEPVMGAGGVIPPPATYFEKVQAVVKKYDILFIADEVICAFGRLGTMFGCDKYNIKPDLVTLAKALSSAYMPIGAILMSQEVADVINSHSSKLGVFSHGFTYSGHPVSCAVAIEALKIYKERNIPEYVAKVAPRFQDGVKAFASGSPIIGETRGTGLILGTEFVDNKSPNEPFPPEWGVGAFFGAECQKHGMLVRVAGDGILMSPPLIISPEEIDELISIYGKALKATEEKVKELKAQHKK

Consider `NCCC[C@H](N)C(=O)O` [Ornithine], for which the Ki amounted to 460 ± 120 µM.

Turning to `NCC(=O)O` [Glycine], the Ki is 3700 ± 460 µM.

Turning to `C=CC(N)CCC(=O)O` (stereo not shown) [Vigabatrin], the Ki came to 620 ± 160 µM.

As to `NCCC(=O)O` [β-Alanine], the Ki came out at 550 ± 130 µM.

The term Ki denotes the dissociation constant of the complex between target and ligand, obtained from inhibition or displacement.

Values taken from paper PMC2671622 (Journal of Experimental Botany, 2009).
